Experimental data from article PMC3391414 (Journal of Agricultural and Food Chemistry, 2011).
“And” between values parts separate entries of the source, which are not always exact repeats. Identical values can stand only once. Like-named read-outs stand apart in the source and are kept apart here.

Key:
UGT1A6 [1] = biological target: T1, UGT1A6 (Homo sapiens, UniProt P19224); assay: Glucuronidation by recombinant human UGT1A6; conditions: UGT1A6, substrate 10 μM
T1 sequence (P19224 27-532): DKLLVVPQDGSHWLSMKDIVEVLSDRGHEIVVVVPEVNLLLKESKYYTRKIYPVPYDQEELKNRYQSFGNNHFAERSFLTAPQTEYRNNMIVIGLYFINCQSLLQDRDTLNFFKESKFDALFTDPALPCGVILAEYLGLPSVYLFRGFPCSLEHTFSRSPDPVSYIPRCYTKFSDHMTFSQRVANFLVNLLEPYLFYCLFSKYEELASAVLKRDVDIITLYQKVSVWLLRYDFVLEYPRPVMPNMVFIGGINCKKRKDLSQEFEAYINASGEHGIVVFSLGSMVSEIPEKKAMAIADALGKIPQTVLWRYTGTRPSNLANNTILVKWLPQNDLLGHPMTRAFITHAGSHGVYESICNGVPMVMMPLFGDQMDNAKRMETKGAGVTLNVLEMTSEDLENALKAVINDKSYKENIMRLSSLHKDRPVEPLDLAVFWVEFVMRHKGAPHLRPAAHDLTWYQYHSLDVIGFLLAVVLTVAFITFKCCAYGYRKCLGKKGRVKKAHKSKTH

UGT1A8 [2] = biological target: T2, UGT1A8 (Homo sapiens, UniProt Q9HAW9); assay: Glucuronidation by recombinant human UGT1A8
T2 sequence (Q9HAW9 26-530): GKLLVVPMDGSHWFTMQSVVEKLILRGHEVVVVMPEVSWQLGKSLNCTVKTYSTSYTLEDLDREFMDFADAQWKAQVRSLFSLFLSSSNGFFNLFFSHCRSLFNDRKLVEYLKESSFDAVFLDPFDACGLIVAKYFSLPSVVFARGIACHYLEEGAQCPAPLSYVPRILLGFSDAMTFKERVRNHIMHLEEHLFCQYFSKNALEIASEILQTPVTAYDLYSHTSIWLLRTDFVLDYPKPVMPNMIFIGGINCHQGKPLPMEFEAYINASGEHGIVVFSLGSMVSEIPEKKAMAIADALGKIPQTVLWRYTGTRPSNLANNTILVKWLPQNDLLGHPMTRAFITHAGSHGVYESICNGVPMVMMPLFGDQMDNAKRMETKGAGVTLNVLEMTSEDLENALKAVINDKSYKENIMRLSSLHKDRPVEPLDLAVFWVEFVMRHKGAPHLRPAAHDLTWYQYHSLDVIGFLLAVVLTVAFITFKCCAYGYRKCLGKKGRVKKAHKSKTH

UGT1A6 [3] = biological target: T1, UGT1A6; conditions: 10 μM, pH 7.4
UGT1A7 = biological target: T3, UGT1A7 (Homo sapiens, UniProt Q9HAW7); conditions: 10 μM, pH 7.4
T3 sequence (Q9HAW7 26-530): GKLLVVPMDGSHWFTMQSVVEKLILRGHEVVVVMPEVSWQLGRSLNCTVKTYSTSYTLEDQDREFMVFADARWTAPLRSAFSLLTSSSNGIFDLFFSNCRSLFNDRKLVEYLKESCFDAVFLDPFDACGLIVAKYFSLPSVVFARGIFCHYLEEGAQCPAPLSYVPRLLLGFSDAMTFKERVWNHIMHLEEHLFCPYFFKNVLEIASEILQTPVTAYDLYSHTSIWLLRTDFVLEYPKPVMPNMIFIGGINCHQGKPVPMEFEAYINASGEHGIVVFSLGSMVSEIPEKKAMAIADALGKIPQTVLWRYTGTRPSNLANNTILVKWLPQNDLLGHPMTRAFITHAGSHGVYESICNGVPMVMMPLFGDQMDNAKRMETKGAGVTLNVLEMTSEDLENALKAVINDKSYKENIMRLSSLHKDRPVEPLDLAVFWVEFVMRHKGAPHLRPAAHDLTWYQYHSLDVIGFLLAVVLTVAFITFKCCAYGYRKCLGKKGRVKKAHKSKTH

UGT1A8 [4] = biological target: T2, UGT1A8; conditions: 10 μM, pH 7.4

Hydroxyl positions glucuronidated (UGT1A6 [1])	Hydroxyl positions glucuronidated (UGT1A8 [2]; UGT1A8, substrate 10 μM)	Hydroxyl positions glucuronidated (UGT1A7)	Hydroxyl positions glucuronidated (UGT1A8 [4])	Structure (SMILES)	Degree of regiospecificity (3-O vs 7-O) (UGT1A8 [2]; UGT1A8, substrate 35 μM)	Hydroxyl positions glucuronidated (UGT1A6 [3])
glucuronidated only 7-O and 4’-O	glucuronidated 3-O, 7-O and 4’-O	–	–	O=c1c(O)c(-c2ccc(O)cc2)oc2cc(O)cc(O)c12 [5,7,4'THFnol, 3,5,7,4’-tetrahydroxyflavone]	weak regiospecificity and 7-O was the preferred position	–
–	–	glucuronidated 7-O position only	glucuronidated 7-O position only	O=c1cc(-c2ccccc2)oc2cc(O)cc(O)c12 [5,7DHF, 5,7-dihydroxyflavone]	–	glucuronidated both 7-O and 5-O positions
